# Source: US9783573B2, “IAP antagonists” (BRISTOL-MYERS SQUIBB COMPANY, priority 2012, dated 2017)
# Experiments:
# Type in all cases: binding
# [1] = target: His-BIR2-3 (125-356, C202A/C213G, XIAP) (Homo sapiens (Human), UniProt P98170, C202A/C213G); experiment: XIAP-BIR2-3 Dimeric SMAC Peptide Homogeneous Time Resolved Fluorescence (HTRF) Assay; conditions: fluorescein labeled dimeric SMAC peptide
# Protocol: D. XIAP-BIR2-3 Dimeric SMAC Peptide Homogeneous Time Resolved Fluorescence (HTRF) Assay
# (§1) Assays were performed in black, flat-bottom, 384-well plates.
# His-BIR3 (241-356, XIAP) = His-BIR3 (241-356, XIAP) (Homo sapiens (Human), UniProt P98170); experiment: XIAP-BIR3/SMAC Homogeneous Time Resolved Fluorescence (HTRF) Assay; conditions: fluorescein labeled SMAC peptide
# Protocol: B. XIAP-BIR3/SMAC Homogeneous Time Resolved Fluorescence (HTRF) Assay
# as §1
# [2] = target: N-His-Tb-BIR3 (241-356, XIAP) (Homo sapiens (Human), UniProt P98170); experiment: biochemical; conditions: fluoresceinated modified SMAC peptide, fluorescence polarization; read-out: XIAP BIR3 FPA IC50
SMILES,IC50 [1],"IC50 (His-BIR3 (241-356, XIAP))",IC50 [2]
"CN[C@@H](C)C(=O)N[C@H](C(=O)N1Cc2ccc(NC(=O)c3ccc(C(=O)N[C@H]4C[C@@H](C(=O)N[C@@H]5CCCc6ccccc65)N(C(=O)[C@@H](NC(=O)[C@H](C)NC)C(C)(C)C)C4)cc3)cc2C[C@H]1C(=O)N[C@@H]1CCCc2ccccc21)C(C)(C)C [Example 2, N^1—((S)-2-((S)-3,3-Dimethyl-2-((S)-2-(methylamino)propanamido)butanoyl)-3-(((R)-1,2,3,4-tetrahydronaphthalen-1-yl)carbamoyl)-1,2,3,4-tetrahydroisoquinolin-6-yl)-N^4-((3S,5S)-1-((S)-3,3-dimethyl-2-((S)-2-(methylamino)propanamido)butanoyl)-5-(((R)-1,2,3,4-tetrahydronaphthalen-1-yl)carbamoyl)pyrrolidin-3-yl)terephthalamide]",0.004 µM,–,–
"CN[C@@H](C)C(=O)N[C@H](C(=O)N1Cc2cc(NC(=O)c3ccc(C(=O)N[C@H]4C[C@@H](C(=O)N[C@@H]5CCCc6ccccc65)N(C(=O)[C@@H](NC(=O)[C@H](C)NC)C(C)(C)C)C4)cc3)ccc2C[C@H]1C(=O)N[C@H](C)c1ccccc1F)C(C)(C)C [Example 11, N^1-((S)-2-((S)-3,3-Dimethyl-2-((S)-2-(methylamino)propanamido)butanoyl)-3-(((R)-1-(2-fluorophenyl)ethyl)carbamoyl)-1,2,3,4-tetrahydroisoquinolin-7-yl)-N^4-((3S,5S)-1-((S)-3,3-dimethyl-2-((S)-2-(methylamino)propanamido)butanoyl)-5-(((R)-1,2,3,4-tetrahydronaphthalen-1-yl)carbamoyl)pyrrolidin-3-yl)terephthalamide]",0.012 µM,0.018 µM,–
"CN[C@@H](C)C(=O)N[C@H](C(=O)N1Cc2cc(NC(=O)c3ccc(C(=O)N[C@H]4C[C@@H](C(=O)N[C@@H]5CCCc6ccccc65)N(C(=O)[C@@H](NC(=O)[C@H](C)NC)C(C)(C)C)C4)cc3)ccc2C[C@H]1C(=O)N[C@@H](COC)c1ccccc1)C(C)(C)C [Example 13, N^1-((S)-2-((S)-3,3-Dimethyl-2-((S)-2-(methylamino)propanamido)butanoyl)-3-(((R)-2-methoxy-1-phenylethyl)carbamoyl)-1,2,3,4-tetrahydroisoquinolin-7-yl)-N^4-((3S,5S)-1-((S)-3,3-dimethyl-2-((S)-2-(methylamino)propanamido)butanoyl)-5-(((R)-1,2,3,4-tetrahydronaphthalen-1-yl)carbamoyl)pyrrolidin-3-yl)terephthalamide]",0.011 µM,0.012 µM,–
"CN[C@@H](C)C(=O)N[C@H](C(=O)N1Cc2cc(C(=O)Nc3ncc(C(=O)N[C@H]4C[C@@H](C(=O)N[C@@H]5CCCc6ccccc65)N(C(=O)[C@@H](NC(=O)[C@H](C)NC)C(C)(C)C)C4)s3)ccc2C[C@H]1C(=O)N[C@@H]1CCCc2ccccc21)C(C)(C)C [Example 21, (S)-2-((S)-3,3-Dimethyl-2-((S)-2-(methylamino)propanamido)butanoyl)-N^7-(5-(((3S,5S)-1-((S)-3,3-dimethyl-2-((S)-2-(methylamino)propanamido)butanoyl)-5-(((R)-1,2,3,4-tetrahydronaphthalen-1-yl)carbamoyl)pyrrolidin-3-yl)carbamoyl)thiazol-2-yl)-N^3-((R)-1,2,3,4-tetrahydronaphthalen-1-yl)-1,2,3,4-tetrahydroisoquinoline-3,7-dicarboxamide]",0.006 µM,0.017 µM,–
"CN[C@@H](C)C(=O)N[C@H](C(=O)N1Cc2cc(NC(=O)c3ccc4ccn(C(=O)NC5C[C@@H](C(=O)NC6CCCc7ccccc76)N(C(=O)[C@@H](NC(=O)[C@H](C)NC)C(C)(C)C)C5)c4c3)ccc2C[C@H]1C(=O)NC1CCCc2ccccc21)C(C)(C)C (stereo partly drawn) [Example 53, N^6-((3S)-2-((S)-3,3-Dimethyl-2-((S)-2-(methylamino)propanamido)butanoyl)-3-((1,2,3,4-tetrahydronaphthalen-1-yl)carbamoyl)-1,2,3,4-tetrahydroisoquinolin-7-yl)-N^1-((5S)-1-((S)-3,3-dimethyl-2-((S)-2-(methylamino)propanamido)butanoyl)-5-((1,2,3,4-tetrahydronaphthalen-1-yl)carbamoyl)pyrrolidin-3-yl)-1H-indole-1,6-dicarboxamide]",–,–,0.14 µM
